Patent publication US6291231A, “Microorganism producing terphenyl compounds” (Shionogi & Co., Ltd., priority 1996, dated 2001)
Converted amounts (≈) assume the structure as drawn.

Legend:
[1] = test system: CCD-19Lu human normal pneumocyte; assay: Cell proliferation inhibition (MTT), CCD-19Lu; format: cell-based
Protocol: (§1) To each well of a 96 well microtiter plate, the pre-determined number of various cell strains (0.1 ml) were added and pre-cultivated for a day under the same cultivation conditions as Experiment 1. To each well, 0.1 ml of the compound (I-1) was added so that the concentration was in the range of 0-10,000 ng/ml. After the cultivation for 3-4 days, 25 μl of 6 mg/ml MTT [3-(4,5-dimethylthiazol-2-yl)-2,5-diphenyltetrazolium bromide] (Sigma) solution was added to each well and the cells were cultivated at 37° C. for 4 hours under the same conditions as above. After the cultivation, 50 μl of 0.02 N hydrochloric acid solution of 20% sodium dodecyl sulfate was added to formazan generated and left at 37° C. for 24 hours for dissolving formazan. An absorption intensity (OD) of formazan generated in proportion to the number of living cells was measured with an immunoreader (InterMed) equipped with a 570 nm filter (The Journal of Immunological Method, No.65, p.55-63, 1983). The 50% inhibitory concentration of a cell proliferation (IC 50) was calculated from a correlation between a concentration of the compound (I-1) and absorption intensity.

BDF1 mouse splenocytes [2] = assay: Suppression of the concanavalin A (Con A) mitogen reaction of mouse splenocytes, 3H-thymidine uptake; format: cell-based; parameters: Radioactivity cpm ± SD: dose or concentration left out as unconfirmed; details: for inhibition at 0.25 µg/mL: Mus musculus, Splenocyte, 48 h, Con A 5 μg/ml, compound 250.0 ng/ml
P388 mouse leukemia cell = assay: Cell proliferation inhibition (MTT), P388; format: cell-based
Protocol: as §1

[3] = test system: Lu-99 human large cell lung cancer; assay: Cell proliferation inhibition (MTT), Lu-99; format: cell-based
Protocol: as §1

[4] = test system: CCFR-CEM human leukemia cell; assay: Cell proliferation inhibition (MTT), CCFR-CEM; format: cell-based
Protocol: as §1

BDF1 mouse splenocytes [5] = assay: Suppression of the lipopolysaccharide (LPS) reaction of mouse splenocytes, 3H-thymidine uptake; format: cell-based; details: for Radioactivity cpm ± SD / inhibition at 0.00098 µg/mL / inhibition at 0.00391 µg/mL / inhibition at 0.0156 µg/mL / inhibition at 0.0625 µg/mL / inhibition at 0.25 µg/mL: LPS 10 μg/ml; for Radioactivity cpm ± SD: 3H-thymidine; for inhibition at 0.00098 µg/mL / inhibition at 0.00391 µg/mL / inhibition at 0.0156 µg/mL / inhibition at 0.0625 µg/mL / inhibition at 0.25 µg/mL: Mus musculus, 48 h; for inhibition at 0.00098 µg/mL / inhibition at 0.00391 µg/mL / inhibition at 0.0156 µg/mL / inhibition at 0.0625 µg/mL / inhibition at 0.25 µg/mL / IC50: Splenocyte; for IC50: LPS reaction of mouse splenocytes; for Suppressive effect on the LPS reaction of mouse splenocytes (in words): depends on the compound concentration
Protocol: To each well of a 96 well microtiter plate were added 5×10^5 BDF1 mouse splenocytes suspended in 0.1 ml of 10% fetal calf serum-fortifed RPMI 1640 medium (2 mM of sodium bicarbonate, 50 units/ml of penicillin, 50 μg/ml of streptomycin and 5×10^-5 M of 2-mercaptethanol were added) were added. To each well, 5 μg/ml of Con A as a mitogen and the compound (I-1), (I-2) or (I-3) of a pre-determined concentration were added so that a final volume of each well reached 0.2 ml. […] The splenocytes in the 96 well microtiter plate were cultivated at 37° C. for 48 hours in an incubator keeping the humidity 100%, carbon dioxide 5% and air 95%. The cells were pulse-labeledwith 3H-thymidine (18.5 Kbq/well) before 6 hours of harvest. After the cultivation, the cells were collected by a cell harvester and radioactivity taken in the cells was measured for being used as an indicator of a cell proliferation activity. Con A-free (--Con A) medium was used as a control.
By the same method as described in above 1-1 except that lipopolysaccharide (LPS, 10 μg/ml) was used in spite of concanavalin A, a suppression of the reaction was examined. LPS-free (--LPS) medium was used as a control.

[6] = Solubility (characterisation data); format: physicochemical
BDF1 mouse splenocytes [7] = assay: Suppression of the concanavalin A (Con A) mitogen reaction of mouse splenocytes, 3H-thymidine uptake; format: cell-based; details: for Radioactivity cpm ± SD / inhibition at 0.00025 µg/mL / inhibition at 0.00098 µg/mL / inhibition at 0.00391 µg/mL / inhibition at 0.0156 µg/mL / inhibition at 0.0625 µg/mL: Con A 5 μg/ml, 48 h; for Radioactivity cpm ± SD: 3H-thymidine; for inhibition at 0.00025 µg/mL / inhibition at 0.00098 µg/mL / inhibition at 0.00391 µg/mL / inhibition at 0.0156 µg/mL / inhibition at 0.0625 µg/mL: Mus musculus; for inhibition at 0.00025 µg/mL / inhibition at 0.00098 µg/mL / inhibition at 0.00391 µg/mL / inhibition at 0.0156 µg/mL / inhibition at 0.0625 µg/mL / IC50: Splenocyte; for IC50: Con A reaction of mouse splenocytes; for Suppression of the Con A reaction of mouse splenocytes (in words): depending on the compound concentration
Protocol: To each well of a 96 well microtiter plate were added 5×10^5 BDF1 mouse splenocytes suspended in 0.1 ml of 10% fetal calf serum-fortifed RPMI 1640 medium (2 mM of sodium bicarbonate, 50 units/ml of penicillin, 50 μg/ml of streptomycin and 5×10^-5 M of 2-mercaptethanol were added) were added. To each well, 5 μg/ml of Con A as a mitogen and the compound (I-1), (I-2) or (I-3) of a pre-determined concentration were added so that a final volume of each well reached 0.2 ml. Each compound of the present invention was dissolved in dimethylsulfoxide (DMSO) and diluted with the above RPMI 1640 medium to adjust the final concentration to 100 ng/ml or less. The splenocytes in the 96 well microtiter plate were cultivated at 37° C. for 48 hours in an incubator keeping the humidity 100%, carbon dioxide 5% and air 95%. The cells were pulse-labeledwith 3H-thymidine (18.5 Kbq/well) before 6 hours of harvest. After the cultivation, the cells were collected by a cell harvester and radioactivity taken in the cells was measured for being used as an indicator of a cell proliferation activity. Con A-free (--Con A) medium was used as a control.

Row | IC50 (BDF1 mouse splenocytes [5]) | Solubility in acetone, ethyl acetate and chloroform [6] | Solubility in water [6] | SMILES | Radioactivity cpm ± SD (BDF1 mouse splenocytes [2]) | inhibition at 0.25 µg/mL (BDF1 mouse splenocytes [2]) | Radioactivity cpm ± SD (BDF1 mouse splenocytes [5]; compound 0.98 ng/ml) | Radioactivity cpm ± SD (BDF1 mouse splenocytes [5]; compound 3.91 ng/ml) | Radioactivity cpm ± SD (BDF1 mouse splenocytes [5]; compound 15.6 ng/ml) | Radioactivity cpm ± SD (BDF1 mouse splenocytes [5]; compound 62.5 ng/ml) | Radioactivity cpm ± SD (BDF1 mouse splenocytes [5]; compound 250.0 ng/ml) | inhibition at 0.00098 µg/mL (BDF1 mouse splenocytes [5]; compound 0.98 ng/ml) | inhibition at 0.00391 µg/mL (BDF1 mouse splenocytes [5]; compound 3.91 ng/ml) | inhibition at 0.0156 µg/mL (BDF1 mouse splenocytes [5]; compound 15.6 ng/ml) | inhibition at 0.0625 µg/mL (BDF1 mouse splenocytes [5]; compound 62.5 ng/ml) | inhibition at 0.25 µg/mL (BDF1 mouse splenocytes [5]; compound 250.0 ng/ml) | Suppressive effect on the LPS reaction of mouse splenocytes (in words) (BDF1 mouse splenocytes [5]) | Radioactivity cpm ± SD (BDF1 mouse splenocytes [7]; compound 0.25 ng/ml) | Radioactivity cpm ± SD (BDF1 mouse splenocytes [7]; compound 0.98 ng/ml) | Radioactivity cpm ± SD (BDF1 mouse splenocytes [7]; compound 3.91 ng/ml) | Radioactivity cpm ± SD (BDF1 mouse splenocytes [7]; compound 15.6 ng/ml) | other results
1 | 4.5 ng/mL (≈ 0.0107 µM) | soluble | insoluble | COc1cc(-c2ccc(O)cc2)c(OC)c(O)c1-c1ccc(OCC=C(C)C)c(O)c1 [Compound I-1, 3',6'-dimethoxy-4-(3-methyl-2-butenyloxy) -[1,1':4',1"] terphenyl-3,2',4"-triol] | 6404 ± 403 cpm | 98.9% | 153396 ± 6123 cpm | 88405 ± 10394 cpm | 32548 ± 315 cpm | 16070 ± 944 cpm | 15046 ± 344 cpm | 0.3% | 43.4% | 80.4% | 91.3% | 92% | potent suppressive effect | 292470 ± 542 cpm | 210046 ± 3288 cpm | 56871 ± 1554 cpm | 11366 ± 372 cpm | IC50 ([1]; Homo sapiens, CCD-19Lu, MEM, 2 × 10^4 cells/well, MTT, 3-4 days, read-out: IC50 (ng/ml) of cell proliferation): > 10000 ng/mL; Antiproliferative activity (in words) ([1]; normal pneumocyte CCD-19Lu): not on the normal pneumocyte CCD-19Lu; IC50 (P388 mouse leukemia cell; Mus musculus, P388, RPMI 1640, 5 × 10^2 cells/well, MTT, 3-4 days, read-out: IC50 (ng/ml) of cell proliferation): 12 ng/mL (≈ 0.0284 µM); Antiproliferative activity (in words) (P388 mouse leukemia cell; tumor cells (P388)): has an antiproliferative activity on the tumor cells; IC50 ([3]; Homo sapiens, Lu-99, RPMI 1640, 2 × 10^3 cells/well, MTT, 3-4 days, read-out: IC50 (ng/ml) of cell proliferation): 1 ng/mL (≈ 0.00237 µM); Antiproliferative activity (in words) ([3]; tumor cells (Lu-99)): has an antiproliferative activity on the tumor cells; IC50 ([4]; Homo sapiens, CCFR-CEM, RPMI 1640, 5 × 10^3 cells/well, MTT, 3-4 days, read-out: IC50 (ng/ml) of cell proliferation): 0.2 ng/mL (≈ 0.000473 µM); Antiproliferative activity (in words) ([4]; tumor cells (CCFR-CEM)): has an antiproliferative activity on the tumor cells; Radioactivity cpm ± SD (BDF1 mouse splenocytes [7]; compound 62.5 ng/ml): 6411 ± 246 cpm; inhibition at 0.00025 µg/mL (BDF1 mouse splenocytes [7]; compound 0.25 ng/ml): -5.6%; inhibition at 0.00098 µg/mL (BDF1 mouse splenocytes [7]; compound 0.98 ng/ml): 24.5%; inhibition at 0.00391 µg/mL (BDF1 mouse splenocytes [7]; compound 3.91 ng/ml): 80.5%; inhibition at 0.0156 µg/mL (BDF1 mouse splenocytes [7]; compound 15.6 ng/ml): 97.1%; inhibition at 0.0625 µg/mL (BDF1 mouse splenocytes [7]; compound 62.5 ng/ml): 98.9%; IC50 (BDF1 mouse splenocytes [7]): 1.2 ng/mL (≈ 0.00284 µM); Suppression of the Con A reaction of mouse splenocytes (in words) (BDF1 mouse splenocytes [7]): significantly suppressed
2 | 15.6 ng/mL (≈ 0.0384 µM) | soluble | insoluble | COc1cc(-c2ccccc2)c(OC)c(O)c1-c1ccc(OCC=C(C)C)c(O)c1 [Compound I-2, 3',6'-dimethoxy-4-(3-methyl-2-butenyloxy)-[1,1';4',1"] terphenyl-3,2'-diol] | 8233 ± 254 cpm | 98.2% | 208023 ± 8941 cpm | 132834 ± 5106 cpm | 78686 ± 4135 cpm | 39824 ± 651 cpm | 22312 ± 1122 cpm | -35.9% | 13.9% | 49.8% | 75.6% | 87.2% | potent suppressive effect | 281904 ± 6522 cpm | 281371 ± 10119 cpm | 191575 ± 6969 cpm | 41660 ± 531 cpm | Radioactivity cpm ± SD (BDF1 mouse splenocytes [7]; compound 62.5 ng/ml): 11793 ± 235 cpm; inhibition at 0.00025 µg/mL (BDF1 mouse splenocytes [7]; compound 0.25 ng/ml): -1.8%; inhibition at 0.00098 µg/mL (BDF1 mouse splenocytes [7]; compound 0.98 ng/ml): -1.6%; inhibition at 0.00391 µg/mL (BDF1 mouse splenocytes [7]; compound 3.91 ng/ml): 30.9%; inhibition at 0.0156 µg/mL (BDF1 mouse splenocytes [7]; compound 15.6 ng/ml): 86%; inhibition at 0.0625 µg/mL (BDF1 mouse splenocytes [7]; compound 62.5 ng/ml): 96.9%; IC50 (BDF1 mouse splenocytes [7]): 5.6 ng/mL (≈ 0.0138 µM); Suppression of the Con A reaction of mouse splenocytes (in words) (BDF1 mouse splenocytes [7]): significantly suppressed
3 | 8 ng/mL (≈ 0.0183 µM) | soluble | insoluble | COc1cc(-c2c(OC)cc(-c3ccc(O)cc3)c(OC)c2O)ccc1OCC=C(C)C [Compound I-3, 3,3',6'-trimethoxy-4-(3-methyl-2-butenyloxy)-[1,1';4',1"] terphenyl-2',4"-diol] | 7522 ± 485 cpm | 98.5% | 184366 ± 10625 cpm | 128436 ± 4167 cpm | 46765 ± 2209 cpm | 22961 ± 1187 cpm | 14962 ± 866 cpm | -20.2% | 16.8% | 71% | 86.7% | 92% | potent suppressive effect | 285408 ± 7252 cpm | 266173 ± 6208 cpm | 101504 ± 1326 cpm | 20510 ± 287 cpm | Radioactivity cpm ± SD (BDF1 mouse splenocytes [7]; compound 62.5 ng/ml): 7755 ± 624 cpm; inhibition at 0.00025 µg/mL (BDF1 mouse splenocytes [7]; compound 0.25 ng/ml): -3.1%; inhibition at 0.00098 µg/mL (BDF1 mouse splenocytes [7]; compound 0.98 ng/ml): 4%; inhibition at 0.00391 µg/mL (BDF1 mouse splenocytes [7]; compound 3.91 ng/ml): 64.2%; inhibition at 0.0156 µg/mL (BDF1 mouse splenocytes [7]; compound 15.6 ng/ml): 93.8%; inhibition at 0.0625 µg/mL (BDF1 mouse splenocytes [7]; compound 62.5 ng/ml): 98.4%; IC50 (BDF1 mouse splenocytes [7]): 2 ng/mL (≈ 0.00458 µM); Suppression of the Con A reaction of mouse splenocytes (in words) (BDF1 mouse splenocytes [7]): significantly suppressed
